Measured values reported in patent publication US9499486B2, “Kinase inhibitor” (RESPIVERT LIMITED, priority 2014, dated 2016).

Key:
Lck = Lck (Homo sapiens (Human), UniProt P06239); assay: KINOMEscan dissociation constant, Lck; format: binding
Text: (§1) These assays may be conducted by DiscoverX (formerly Ambit; San Diego, Calif.).

B-Raf = B-Raf (Homo sapiens (Human), UniProt P15056); assay: KINOMEscan binding of B-Raf to standard ligand
Text: as §1

Syk = Syk (Homo sapiens (Human), UniProt P43405); assay: Syk enzyme inhibition, Z-LYTE FRET; format: biochemical
Procedure: The enzyme inhibitory activities of the compound disclosed herein are determined by FRET using synthetic peptides labelled with both donor and acceptor fluorophores (Z-LYTE, Invitrogen Ltd., Paisley, UK).
The inhibitory activities of the compound of the invention against c-Src and Syk enzymes (Invitrogen), are evaluated in a similar fashion to that described hereinabove. The relevant enzyme (3000 ng/mL or 2000 ng/mL respectively, 2.5 μL) is incubated with the test compound (either 1 μg/mL, 0.1 μg/mL, 0.01 μg/mL, or 0.001 μg/mL, 2.5 μL each) for 2 hr at RT. The FRET peptides (8 μM, 2.5 μL), and appropriate ATP solutions (2.5 μL, 800 μM for c-Src, and 60 μM ATP for Syk) are then added to the enzymes/compound mixtures and the mixture incubated for 1 hr. Development reagent (protease, 5 μL) is added for 1 hr prior to detection in a fluorescence microplate reader (Varioskan® Flash, ThermoFisher Scientific).
In all cases, the site-specific protease cleaves non-phosphorylated peptide only and eliminates the FRET signal. Phosphorylation levels of each reaction are calculated using the ratio of coumarin emission (donor) over fluorescein emission (acceptor), for which high ratios indicate high phosphorylation and low ratios indicate low phosphorylation levels.

PBMCs = assay: Cell mitosis assay (assay g); format: cell-based, human
Procedure: Peripheral blood mononucleocytes (PBMCs) from healthy subjects are separated from whole blood (Quintiles, London, UK) using a density gradient (Histopaque-1077, Sigma-Aldrich, Poole, UK). The PBMCs (3 million cells per sample) are subsequently treated with 2% PHA (phytohaemagglutinin, Sigma-Aldrich, Poole, UK) for 48 hr, followed by a 20 hr exposure to varying concentrations of test compounds. At 2 hr before collection, PBMCs are treated with demecolcine (0.1 μg/mL; Invitrogen, Paisley, UK) to arrest cells in metaphase. To observe mitotic cells, PBMCs are permeabilised and fixed by adding Intraprep (50 μL; Beckman Coulter, France), and stained with anti-phospho-histone 3 (0.26 ng/L; #9701; Cell Signalling, Danvers, Mass.) and propidium iodide (1 mg/mL; Sigma-Aldrich, Poole, UK) as previously described (Muehlbauer P. A. and Schuler M. J., Mutation Research, 2003, 537:117-130). Fluorescence is observed using an ATTUNE flow cytometer (Invitrogen, Paisley, UK), gating for lymphocytes.

LPS-stimulated rats = assay: Endotoxin-induced uveitis in rats; format: in vivo, rat; conditions: mean ± SEM; for IL-1β Anterior tissue / IL-1β Posterior tissue: LPS-stimulated rats; for Cell counts: aqueous humor
Procedure: Male, Lewis rats (6-8 weeks old, Charles River UK Limited) are housed in cages of 3 at 19-21° C. with a 12 h light/dark cycle (07:00/19:00) and fed a standard diet of rodent chow and water ad libitum. Non-fasted rats are weighed, individually identified on the tail with a permanent marker, and receive a single intravitreal administration into the right vitreous humor (5 μL dose volume) of 100 ng/animal of LPS (Escherichia coli 0111:B4 prepared in PBS, Sigma Aldrich, UK) using a 32-gauge needle. Untreated rats are injected with PBS. Test compound or vehicle (4% polyoxyl 40 stearate, 4% mannitol in PBS (pH 7.4)) are administered by the topical route onto the right eye (10 μL) of animals 1 hour prior to LPS, at the time of LPS administration, and 1, 2 and 4 hours post LPS administration. Before administration, the solution to be administered is sonicated to ensure a clear solution. 6 hours after LPS dosing, animals are euthanized by overdose with pentobarbitone (via cardiac puncture). Immediately after euthanasia, 10 μL of aqueous humor is collected from the right eye of the rats by puncture of the anterior chamber using a 32 gauge needle under a surgical microscope. The aqueous humor is diluted in 20 μL of PBS and total cell counts are measured immediately using a Countess automated cell counter (Invitrogen). Following collection of the aqueous humour, the right eye of each animal is enucleated and dissected into front (anterior) and back (posterior) sections around the lens. Each section is weighed and homogenised in 500 μL of sterile phosphate buffered saline followed by 20 minutes centrifugation at 12000 rpm at 4° C. The resulting supernatant is divided into 3 aliquots and stored at −80° C. until subsequent cytokine analysis by R&D DuoSet ELISA.

hERG = hERG (Homo sapiens (Human), UniProt Q12809); assay: hERG inhibition, IonWorks patch clamp electrophysiology; format: cell-based; conditions: human; Top Concentration 3 μM
Procedure: (§2) The compound of the invention was tested for inhibition of the human ether a go-go (hERG) channel using IonWorks™ patch clamp electrophysiology at Essen Bioscience (Welwyn Garden City, England).

[1] = biological target: human ether a go-go (hERG) channel (Homo sapiens (Human), UniProt Q12809); assay: as above; format: cell-based; conditions: IonWorks patch clamp
Procedure: as §2

[2] = Stability of pharmaceutical formulations (1 mg/mL solutions); format: physicochemical; conditions: 5° C.
Procedure: The samples were sonicated to achieve clear solutions having the following properties: Osmolality (mOsm/kg): 310 (Na), 314 (HCl); pH: 7.00 (Na), 7.05 (HCl). 0.5 mL of the stock solutions were diluted to 1 mL with 20% DMSO in water & injected for purity analysis by HPLC. The remaining stock solutions were then split into aliquots of 0.5 mL in HPLC vials, and stored at various conditions in duplicate. Samples were stored at 5 and 25° C., before being analysed by HPLC at 1, 2 and 4 weeks. Separate samples were stored at 40° C. and analysed at 4 weeks.

[3] = system: Salmonella typhimurium, strains TA1535, TA1537, TA98 and TA100 and Escherichia coli, WP2 uvrA; assay: Bacterial reverse mutation screen (plate incorporation)

hERG, sequence (Q12809 whole entry): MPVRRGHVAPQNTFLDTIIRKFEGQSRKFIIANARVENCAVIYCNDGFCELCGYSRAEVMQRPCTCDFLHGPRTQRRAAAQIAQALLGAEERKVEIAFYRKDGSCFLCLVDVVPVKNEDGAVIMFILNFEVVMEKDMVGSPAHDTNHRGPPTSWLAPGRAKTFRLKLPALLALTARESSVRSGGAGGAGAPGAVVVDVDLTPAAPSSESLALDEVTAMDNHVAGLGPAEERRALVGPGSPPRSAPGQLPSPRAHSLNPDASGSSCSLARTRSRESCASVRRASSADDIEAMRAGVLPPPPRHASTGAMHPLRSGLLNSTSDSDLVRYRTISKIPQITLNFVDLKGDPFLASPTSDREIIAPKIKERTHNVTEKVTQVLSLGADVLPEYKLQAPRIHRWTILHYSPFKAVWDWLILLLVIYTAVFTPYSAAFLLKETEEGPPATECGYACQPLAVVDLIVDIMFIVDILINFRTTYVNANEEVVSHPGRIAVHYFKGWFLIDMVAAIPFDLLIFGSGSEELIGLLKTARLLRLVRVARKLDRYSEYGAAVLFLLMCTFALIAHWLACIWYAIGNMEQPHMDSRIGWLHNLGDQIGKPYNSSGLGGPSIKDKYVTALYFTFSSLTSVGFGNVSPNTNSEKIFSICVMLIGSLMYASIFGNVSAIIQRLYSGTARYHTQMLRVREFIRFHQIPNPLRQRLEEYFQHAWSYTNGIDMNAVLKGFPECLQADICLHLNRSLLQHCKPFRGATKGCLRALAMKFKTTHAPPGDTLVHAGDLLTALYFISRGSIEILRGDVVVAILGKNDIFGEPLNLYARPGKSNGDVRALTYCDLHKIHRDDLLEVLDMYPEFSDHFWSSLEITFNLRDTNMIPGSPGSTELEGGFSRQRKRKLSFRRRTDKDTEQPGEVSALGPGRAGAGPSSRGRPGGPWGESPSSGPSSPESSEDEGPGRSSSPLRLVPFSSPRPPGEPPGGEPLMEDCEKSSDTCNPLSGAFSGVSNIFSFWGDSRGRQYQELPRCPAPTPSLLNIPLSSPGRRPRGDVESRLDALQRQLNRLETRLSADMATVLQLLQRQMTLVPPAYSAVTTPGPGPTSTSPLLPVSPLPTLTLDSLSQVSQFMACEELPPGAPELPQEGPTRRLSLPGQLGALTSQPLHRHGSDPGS
human ether a go-go (hERG) channel, sequence (Q12809 whole entry): as above
B-Raf, sequence (P15056 whole entry): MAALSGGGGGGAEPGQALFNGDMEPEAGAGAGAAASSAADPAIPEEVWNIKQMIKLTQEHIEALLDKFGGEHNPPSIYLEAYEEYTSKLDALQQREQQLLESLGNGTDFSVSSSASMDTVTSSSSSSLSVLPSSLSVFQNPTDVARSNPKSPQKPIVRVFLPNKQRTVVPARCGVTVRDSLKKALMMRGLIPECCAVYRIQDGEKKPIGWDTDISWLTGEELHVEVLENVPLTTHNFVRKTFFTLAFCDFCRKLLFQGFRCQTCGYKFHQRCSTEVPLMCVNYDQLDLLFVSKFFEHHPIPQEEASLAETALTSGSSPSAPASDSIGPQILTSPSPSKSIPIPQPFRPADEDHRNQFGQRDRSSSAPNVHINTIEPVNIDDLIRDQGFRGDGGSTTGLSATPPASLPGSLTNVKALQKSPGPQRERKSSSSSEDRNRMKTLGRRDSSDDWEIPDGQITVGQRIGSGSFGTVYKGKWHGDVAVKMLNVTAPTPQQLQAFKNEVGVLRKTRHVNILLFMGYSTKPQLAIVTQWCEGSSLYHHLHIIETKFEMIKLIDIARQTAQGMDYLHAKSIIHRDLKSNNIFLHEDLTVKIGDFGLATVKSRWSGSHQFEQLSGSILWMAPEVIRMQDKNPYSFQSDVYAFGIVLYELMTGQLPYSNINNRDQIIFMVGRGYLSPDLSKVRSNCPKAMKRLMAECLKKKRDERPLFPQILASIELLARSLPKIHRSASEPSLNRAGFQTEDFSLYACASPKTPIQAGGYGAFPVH
Lck, sequence (P06239 whole entry): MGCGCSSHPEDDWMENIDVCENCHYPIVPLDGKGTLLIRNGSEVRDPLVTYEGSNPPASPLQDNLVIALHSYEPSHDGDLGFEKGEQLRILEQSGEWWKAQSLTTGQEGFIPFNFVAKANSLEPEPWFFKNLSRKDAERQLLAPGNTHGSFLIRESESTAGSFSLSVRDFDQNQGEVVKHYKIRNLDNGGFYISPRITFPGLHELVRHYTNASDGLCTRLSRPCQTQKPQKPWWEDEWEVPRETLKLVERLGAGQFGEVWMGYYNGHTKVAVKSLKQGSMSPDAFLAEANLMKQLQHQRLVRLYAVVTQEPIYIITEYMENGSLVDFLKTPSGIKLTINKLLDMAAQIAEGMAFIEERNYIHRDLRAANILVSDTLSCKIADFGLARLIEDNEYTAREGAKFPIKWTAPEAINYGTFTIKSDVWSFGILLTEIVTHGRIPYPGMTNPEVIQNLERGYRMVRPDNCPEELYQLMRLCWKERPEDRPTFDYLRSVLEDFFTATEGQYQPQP

## COc1cc(Nc2cc(Oc3ccc(NC(=O)Nc4cc(C(C)(C)C)cc(NS(C)(=O)=O)c4OC)c4ccccc34)ccn2)ccc1C(=O)O [Example 1, 4-((4-((4-(3-(5-(tert-Butyl)-2-methoxy-3-(methylsulfonamido)phenyl)ureido)naphthalen-1-yl)oxy)pyridin-2-yl)amino)-2-methoxybenzoic acid]
Lck
  Kd: 4.2 nM
B-Raf
  effect on the binding of B-Raf to its standard ligand: did not have any significant effect
Syk
  IC50: 5 nM
PBMCs
  impact on cell division (mitosis) in PBMCs compared with Reference Compound: markedly less active than the Reference Compound
LPS-stimulated rats; 0.001 mg/mL topical
  IL-1β Anterior tissue: 1558.1 ± 145.7 pg/mL
  IL-1β Posterior tissue: 867.9 ± 120.8 pg/mL
  Cell counts: 63.6 ± 7.0 ×10^5/mL
LPS-stimulated rats; 0.01 mg/mL topical
  IL-1β Anterior tissue: 980.0 ± 110.8 pg/mL
  IL-1β Posterior tissue: 740.5 ± 56.2 pg/mL
  Cell counts: 43.5 ± 6.3 ×10^5/mL
LPS-stimulated rats; 0.1 mg/mL topical
  IL-1β Anterior tissue: 791.2 ± 131.9 pg/mL
  IL-1β Posterior tissue: 327.4 ± 61.4 pg/mL
  Cell counts: 30.4 ± 6.7 ×10^5/mL
LPS-stimulated rats; 1 mg/mL topical
  IL-1β Anterior tissue: 367.3 ± 100.4 pg/mL
  IL-1β Posterior tissue: 188.1 ± 54.7 pg/mL
  Cell counts: 21.9 ± 5.0 ×10^5/mL
hERG
  inhibition at 3 µM: -4%
[1]
  IC50: > 3300 nM
[2]
  stability in solution: stable
[3]; 15-1500 μg/plate, all strains, presence and absence of S-9 mix
  mutagenic effects: absence of any mutagenic effects
[3]; 500 and 1500 μg/plate in TA98, 1500 μg/plate in TA1535, presence of S-9 mix
  toxicity of the test item to the bacteria: reduction in the mean colony count
[3]; all strains, presence and absence of S-9 mix, plate incorporation
  limit of solubility in mutation test: 1500 μg/plate
[3]; any strain, any dose level, presence or absence of S-9 mix
  increases in revertant numbers: no dose-related or statistically significant increases
